We go through one compound from patent publication US10428159B2, “Blocking monoclonal antibodies to AGR2 and its receptor C4.4A” (Board of Regents, The University of Texas System, priority 2014, dated 2019).

Assay [1] concerns AsPC-1 cells. Put plainly: Apoptosis assay (Gem, rAGR2, antibodies). It is filed as cell-based. The conditions noted are these: AsPC-1, 5 μM Gem. How it is done: FIGS. 11A-D. Monoclonal antibodies developed bind respectively to AGR2 and C4.4A proteins and blocked their functions. From the endogenous lysate (SU86.86/Panc-1), AGR2 (18 kD) and C4.4A (50 kD) were identified by a panel of mAbs. […] Extra bands identified with the endogenous protein were re-confirmed with the recombinant protein. For apoptosis studies, AsPC-1 cells were treated without or with Gem (0.5 μM) and rAGR2 (100 nM) and with purified (A) AGR2 and (B) C4.4A Abs (1 μM). Commercially available Abs served as control. […] Horizontal line represents median apoptotic value. Data shown are mean±SE for 3 experiments (*p<0.05). (C,D) Binding assays were conducted with purified (C) AGR2 and (D) C4.4A Abs as selected from the apoptosis assay as having high blocking efficiency. ELISA assays were conducted by coating antigenic peptide (0.5 μg) and probed with respective purified Abs. Data shown are mean±SE for 3 experiments (*p <0.05). Based on high specificity and binding, clone 28B for AGR2 and 1A for C4.4A were selected. Purified Abs were also run on 4-20% gradient gel to check for the presence of heavy (50 kD) and light chains (25 kD).
Cell growth, migration, invasion and apoptosis assays. Wild-type and siRNA transfected PDAC cells were grown with rAGR2 (0-500 nM) in the presence and absence of antibodies (polyclonal commercial or newly developed mAbs) (1 μM). The medium was refreshed daily. […]

A further assay relates to BxPC-3 cells. Put plainly: Apoptosis assay (Gem, rAGR2). The class given is cell-based. The conditions noted are these: BxPC-3, Gem 1 μM. How it is done:
FIGS. 7A-D. Extracellular rAGR2-mediated functions. (A) Pancreatic cancer cells (BxPC-3 and MiaPaCa-2) were used for these studies. Extracellular addition of rAGR2 caused a significant dose-dependent increase in proliferation (BxPC-3-3-fold increase; MiaPaCa-2-4-fold increase; p<0.05). Pancreatic cancer cells were plated (2×10^4 cells) with and without rAGR2 (0-100 nM) on a Boyden's chamber for migration studies (B) and on an invasion chamber for invasion studies (C). After 22 h, cells were fixed with methanol and stained by hematoxylin, and cells in 10 random fields at 100× magnification were photographed and counted. Extracellular addition of rAGR2 caused a significant dose-dependent increase in migration (BxPC-3-7-fold increase; MiaPaCa-2-3-fold increase) and invasion (BxPC-3-10-fold increase; MiaPaCa-2-3-fold increase). (D) For analysis of apoptosis, BxPC-3 cells were treated with and without Gem (1 μM) and AGR2 (100 nM). […] Data shown are mean±SE for 3 experiments (*p<0.05 vs. control).
Cell growth, migration, invasion and apoptosis assays. Wild-type and siRNA transfected PDAC cells were grown with rAGR2 (0-500 nM) in the presence and absence of antibodies (polyclonal commercial or newly developed mAbs) (1 μM). The medium was refreshed daily. Cell numbers were estimated after 48 h by MTS assay as described previously (Ramachandran et al., 2007). […]

Assay [2] deals with AsPC-1 cells. Put plainly: Model 1 AsPC-1 aggressive cell model, orthotopic tumors. The class given is in vivo, athymic nude mice. How it is done: In vivo studies. In vivo experiments were conducted with athymic nude mice (B6.Cg-Foxn1^nu/J—female—age 9 weeks) (NCI, Bethesda, Md.) according to the UT MDACC regulatory standards and IUCAC committee approval. Orthotopic tumors were developed with luciferase-labeled cells (0.25×10^6). IgG (Cat #OB010701; Southern Biotech, Birmingham, Ala.) served as a control Ab.
Model 1 (AsPC-1-Aggressive Cell Model)—Two weeks after the injection of the aggressive AsPC-1 cells, when the tumors weighed less than 0.5 g (as surgically confirmed from a parallel untreated group), mice (n=6) were treated with control or mAbs (5 mg each of AGR2/C4.4A mAb in combination/kg/body weight/twice a week/i.p) and with or without Gem (100 mg/kg body weight/once a week/i.p) until all of the control mice had died (seven weeks). Tumor weight and metastasis to liver and lung were compared between control and treated groups ex vivo at the end of the experiment.

Consider `Nc1ccn([C@@H]2O[C@H](CO)[C@@H](O)C2(F)F)c(=O)n1` [Gem, Gemcitabine, reference compound], for which the increase in apoptosis with AsPC-1 cells [1] amounted to 3 fold; with BxPC-3 cells, 1 fold. Besides, the “effect on tumor growth and metastasis incidence” value in the assay with AsPC-1 cells [2] (Gem 100 mg/kg once a week i.p., alone or in combination with the mAbs) is “no significant effect”. Moreover, the mice remained alive in the assay with AsPC-1 cells [2] (after four weeks of treatment (six weeks total), when all control Ab mice had died) is 30%.
